Experimental data reported in patent US9550772B2, “Azaindole derivatives as multi kinase inhibitors” (ORIBASE PHARMA, priority 2012, dated 2017).
Where two headings read alike, the source gives them in different places.

Assays:
HT29 cell line = test: In vitro cell proliferation assay (MTT); assay type: cell-based; settings: Homo sapiens, HT-29, HT29, 72 hr, read-out: EC50, anti-proliferative activity
How it was run: (§1)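 Duplicate 72 hr treatments spanning 10 nM–3 μM compound preceded MTT measurement of growth. Sigmoidal fitting yielded EC50, with normalization against DMSO controls set at 0% and 1% SDS controls set at 100%.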

A549 cell line = test: In vitro cell proliferation assay (MTT); assay type: cell-based; settings: Homo sapiens, A549, 72 h, read-out: EC50, anti-proliferative activity
How it was run: as §1

HuH7 cell line = test: In vitro cell proliferation assay (MTT); assay type: cell-based; settings: Homo sapiens, Huh-7, HuH7, 72 hr, read-out: EC50, anti-proliferative activity
How it was run: as §1

H1975 cell line = test: In vitro cell proliferation assay (MTT); assay type: cell-based; settings: Homo sapiens, NCI-H1975, H1975, 72 hr, read-out: EC50, anti-proliferative activity
How it was run: as §1

HepG2 cell line = test: In vitro cell proliferation assay (MTT); assay type: cell-based; settings: Homo sapiens, HepG2, 72 hr, read-out: EC50, anti-proliferative activity
How it was run: as §1

HuCCT1 cell line = test: In vitro cell proliferation assay (MTT); assay type: cell-based; settings: Homo sapiens, HuCCT-1, HuCCT1, 72 hr, read-out: EC50, anti-proliferative activity
How it was run: as §1

MDA-MB-231 cell line = test: In vitro cell proliferation assay (MTT); assay type: cell-based; settings: Homo sapiens, MDA-MB-231, 72 hr, read-out: EC50, anti-proliferative activity
How it was run: as §1

HUVEC cells = test: In vitro cell proliferation assay (MTT); assay type: cell-based; settings: Homo sapiens, 72 hr, read-out: EC50, anti-proliferative activity
How it was run: as §1

HeLa cell line = test: In vitro cell proliferation assay (MTT); assay type: cell-based; settings: Homo sapiens, 72 hr, 100 nM < EC50 < 1 μM, read-out: EC50, anti-proliferative activity
How it was run: as §1

HuH6 Clone 5 cell line = test: In vitro cell proliferation assay (MTT); assay type: cell-based; settings: HUH-6-clone5, HuH6 Clone 5, 72 hr, read-out: EC50, anti-proliferative activity
How it was run: as §1

SRC = biological target: T1, SRC (Homo sapiens, UniProt P12931); test: In vitro kinase assay (Z'-LYTE, Invitrogen); assay type: biochemical; settings: compound at 100 nM, ATP Km apparent, read-out: % of inhibition of the kinase compared to the control
T1 construct: purchased Invitrogen
How it was run: (§2)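 Compounds were tested at 100 nM in 1% DMSO final against each kinase with its peptide substrate, ATP at apparent Km, in 50 mM HEPES pH 7.5 with 10 mM MgCl2, 1 mM EGTA, 0.01% BRIJ-35. Phosphorylation was quantified by Z′-LYTE coupled protease/FRET emission ratio.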

EGFR (ErbB1) = biological target: T2, EGFR (ErbB1) (Homo sapiens, UniProt P00533); test: In vitro kinase assay (Z'-LYTE, Invitrogen); assay type: biochemical; settings: compound at 100 nM, ATP Km apparent, read-out: % of inhibition of the kinase compared to the control
T2 construct: purchased Invitrogen
How it was run: as §2

KDR (VEGFR2) = biological target: T3, KDR (VEGFR2) (Homo sapiens, UniProt P35968); test: In vitro kinase assay (Z'-LYTE, Invitrogen); assay type: biochemical; settings: compound at 100 nM, ATP Km apparent, read-out: % of inhibition of the kinase compared to the control
T3 construct: purchased Invitrogen
How it was run: as §2

EGFR (ErbB1) T790M L858R = biological target: T4, EGFR (ErbB1) T790M L858R (Homo sapiens, UniProt P00533, L858R/T790M); test: In vitro kinase assay (Z'-LYTE, Invitrogen); assay type: biochemical; settings: compound at 100 nM, ATP Km apparent, read-out: % of inhibition of the kinase compared to the control
T4 construct: purchased Invitrogen
How it was run: as §2

BRAF = biological target: T5, BRAF (Homo sapiens, UniProt P15056); test: In vitro kinase assay (Z'-LYTE, Invitrogen); assay type: biochemical; settings: compound at 100 nM, ATP Km apparent, read-out: % of inhibition of the kinase compared to the control
T5 construct: purchased Invitrogen
How it was run: as §2

PDGFRA (PDGFR alpha) = biological target: T6, PDGFRA (PDGFR alpha) (Homo sapiens, UniProt P16234); test: In vitro kinase assay (Z'-LYTE, Invitrogen); assay type: biochemical; settings: compound at 100 nM, ATP Km apparent, read-out: % of inhibition of the kinase compared to the control
T6 construct: purchased Invitrogen
How it was run: as §2

FGFR2 = biological target: T7, FGFR2 (Homo sapiens, UniProt P21802); test: In vitro kinase assay (Z'-LYTE, Invitrogen); assay type: biochemical; settings: compound at 100 nM, ATP Km apparent, read-out: % of inhibition of the kinase compared to the control
T7 construct: purchased Invitrogen
How it was run: as §2

HRMEC cells = test: In vitro cell proliferation assay (MTT); assay type: cell-based; settings: 72 hr, read-out: EC50, anti-proliferative activity
How it was run: as §1

T1 sequence (P12931 whole entry): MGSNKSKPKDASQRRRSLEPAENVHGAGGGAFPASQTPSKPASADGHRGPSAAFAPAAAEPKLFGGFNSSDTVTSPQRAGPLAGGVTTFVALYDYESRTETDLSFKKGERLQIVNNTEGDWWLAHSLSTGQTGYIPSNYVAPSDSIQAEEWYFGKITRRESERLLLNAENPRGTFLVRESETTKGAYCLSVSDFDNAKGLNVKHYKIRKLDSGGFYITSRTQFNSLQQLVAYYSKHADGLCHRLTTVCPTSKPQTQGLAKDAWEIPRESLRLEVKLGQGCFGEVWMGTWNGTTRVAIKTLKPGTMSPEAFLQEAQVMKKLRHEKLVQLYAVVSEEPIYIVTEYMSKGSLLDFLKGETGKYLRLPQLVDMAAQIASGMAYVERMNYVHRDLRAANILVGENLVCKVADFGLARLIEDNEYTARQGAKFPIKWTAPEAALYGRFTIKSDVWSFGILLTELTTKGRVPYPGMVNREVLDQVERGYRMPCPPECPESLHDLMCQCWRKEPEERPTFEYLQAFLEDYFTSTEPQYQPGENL
T2 sequence (P00533 25-1210): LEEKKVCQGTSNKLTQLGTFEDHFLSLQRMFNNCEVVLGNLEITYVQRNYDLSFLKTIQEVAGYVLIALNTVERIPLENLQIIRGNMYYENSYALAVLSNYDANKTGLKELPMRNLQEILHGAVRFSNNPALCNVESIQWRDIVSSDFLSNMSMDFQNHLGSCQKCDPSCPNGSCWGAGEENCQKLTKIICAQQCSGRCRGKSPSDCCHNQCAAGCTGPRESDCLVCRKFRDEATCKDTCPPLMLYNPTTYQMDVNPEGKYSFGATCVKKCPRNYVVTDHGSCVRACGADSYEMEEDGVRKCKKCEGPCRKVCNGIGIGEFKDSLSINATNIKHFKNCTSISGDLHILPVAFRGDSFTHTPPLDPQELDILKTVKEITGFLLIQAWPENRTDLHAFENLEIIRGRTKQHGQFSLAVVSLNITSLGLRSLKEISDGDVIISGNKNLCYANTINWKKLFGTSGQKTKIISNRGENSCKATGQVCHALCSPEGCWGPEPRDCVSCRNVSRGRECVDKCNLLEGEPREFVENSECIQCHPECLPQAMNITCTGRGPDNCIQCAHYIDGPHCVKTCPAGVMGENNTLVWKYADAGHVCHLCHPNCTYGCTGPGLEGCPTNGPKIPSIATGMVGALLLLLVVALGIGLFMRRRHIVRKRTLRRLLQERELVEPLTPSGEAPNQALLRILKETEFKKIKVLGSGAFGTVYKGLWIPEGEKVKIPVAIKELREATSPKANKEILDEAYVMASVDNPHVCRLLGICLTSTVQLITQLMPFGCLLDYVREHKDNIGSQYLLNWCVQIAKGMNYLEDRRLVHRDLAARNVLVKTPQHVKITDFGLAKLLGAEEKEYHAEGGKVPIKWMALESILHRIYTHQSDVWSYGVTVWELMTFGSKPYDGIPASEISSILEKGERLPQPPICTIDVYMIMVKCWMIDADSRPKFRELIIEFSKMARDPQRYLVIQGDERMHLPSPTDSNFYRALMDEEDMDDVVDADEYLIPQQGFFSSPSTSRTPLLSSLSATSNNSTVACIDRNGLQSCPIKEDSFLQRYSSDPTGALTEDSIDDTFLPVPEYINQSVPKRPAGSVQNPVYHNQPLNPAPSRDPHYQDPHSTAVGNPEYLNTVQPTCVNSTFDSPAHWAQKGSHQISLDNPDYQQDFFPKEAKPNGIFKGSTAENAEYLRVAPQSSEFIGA
T3 sequence (P35968 20-1356): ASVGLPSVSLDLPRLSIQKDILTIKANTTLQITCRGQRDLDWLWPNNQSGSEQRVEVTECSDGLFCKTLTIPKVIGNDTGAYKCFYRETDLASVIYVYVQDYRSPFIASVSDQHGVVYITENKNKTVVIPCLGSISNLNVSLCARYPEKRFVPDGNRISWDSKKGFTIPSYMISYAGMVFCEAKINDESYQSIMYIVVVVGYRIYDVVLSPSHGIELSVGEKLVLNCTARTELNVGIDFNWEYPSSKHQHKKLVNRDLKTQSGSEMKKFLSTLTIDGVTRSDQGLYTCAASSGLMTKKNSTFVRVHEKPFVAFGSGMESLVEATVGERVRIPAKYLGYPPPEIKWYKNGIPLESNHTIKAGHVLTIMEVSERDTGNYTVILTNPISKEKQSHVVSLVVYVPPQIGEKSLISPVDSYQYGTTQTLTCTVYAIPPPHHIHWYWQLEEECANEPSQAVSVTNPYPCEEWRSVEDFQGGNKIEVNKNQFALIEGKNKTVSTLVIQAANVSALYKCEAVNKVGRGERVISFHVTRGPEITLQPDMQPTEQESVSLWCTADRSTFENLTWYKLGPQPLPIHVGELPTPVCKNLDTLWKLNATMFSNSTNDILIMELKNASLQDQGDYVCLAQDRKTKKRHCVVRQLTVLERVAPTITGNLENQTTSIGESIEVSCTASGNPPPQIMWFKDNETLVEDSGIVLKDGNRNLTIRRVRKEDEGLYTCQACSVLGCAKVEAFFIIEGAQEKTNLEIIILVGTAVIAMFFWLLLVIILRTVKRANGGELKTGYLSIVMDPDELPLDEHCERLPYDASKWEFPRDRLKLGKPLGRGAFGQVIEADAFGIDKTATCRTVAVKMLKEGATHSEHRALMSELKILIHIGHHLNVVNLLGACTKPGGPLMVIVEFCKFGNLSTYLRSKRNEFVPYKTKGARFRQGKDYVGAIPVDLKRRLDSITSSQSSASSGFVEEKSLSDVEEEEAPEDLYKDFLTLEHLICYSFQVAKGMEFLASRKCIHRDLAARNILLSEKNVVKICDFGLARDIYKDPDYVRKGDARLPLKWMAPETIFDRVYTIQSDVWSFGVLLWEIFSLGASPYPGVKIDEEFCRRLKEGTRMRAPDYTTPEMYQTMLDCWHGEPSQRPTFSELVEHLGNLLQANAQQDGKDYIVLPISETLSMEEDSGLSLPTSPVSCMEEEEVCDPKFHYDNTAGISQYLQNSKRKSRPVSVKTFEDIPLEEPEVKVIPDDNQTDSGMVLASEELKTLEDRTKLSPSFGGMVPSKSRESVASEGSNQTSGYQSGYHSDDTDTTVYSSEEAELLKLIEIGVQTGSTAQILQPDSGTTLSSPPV
T6 sequence (P16234 24-1089): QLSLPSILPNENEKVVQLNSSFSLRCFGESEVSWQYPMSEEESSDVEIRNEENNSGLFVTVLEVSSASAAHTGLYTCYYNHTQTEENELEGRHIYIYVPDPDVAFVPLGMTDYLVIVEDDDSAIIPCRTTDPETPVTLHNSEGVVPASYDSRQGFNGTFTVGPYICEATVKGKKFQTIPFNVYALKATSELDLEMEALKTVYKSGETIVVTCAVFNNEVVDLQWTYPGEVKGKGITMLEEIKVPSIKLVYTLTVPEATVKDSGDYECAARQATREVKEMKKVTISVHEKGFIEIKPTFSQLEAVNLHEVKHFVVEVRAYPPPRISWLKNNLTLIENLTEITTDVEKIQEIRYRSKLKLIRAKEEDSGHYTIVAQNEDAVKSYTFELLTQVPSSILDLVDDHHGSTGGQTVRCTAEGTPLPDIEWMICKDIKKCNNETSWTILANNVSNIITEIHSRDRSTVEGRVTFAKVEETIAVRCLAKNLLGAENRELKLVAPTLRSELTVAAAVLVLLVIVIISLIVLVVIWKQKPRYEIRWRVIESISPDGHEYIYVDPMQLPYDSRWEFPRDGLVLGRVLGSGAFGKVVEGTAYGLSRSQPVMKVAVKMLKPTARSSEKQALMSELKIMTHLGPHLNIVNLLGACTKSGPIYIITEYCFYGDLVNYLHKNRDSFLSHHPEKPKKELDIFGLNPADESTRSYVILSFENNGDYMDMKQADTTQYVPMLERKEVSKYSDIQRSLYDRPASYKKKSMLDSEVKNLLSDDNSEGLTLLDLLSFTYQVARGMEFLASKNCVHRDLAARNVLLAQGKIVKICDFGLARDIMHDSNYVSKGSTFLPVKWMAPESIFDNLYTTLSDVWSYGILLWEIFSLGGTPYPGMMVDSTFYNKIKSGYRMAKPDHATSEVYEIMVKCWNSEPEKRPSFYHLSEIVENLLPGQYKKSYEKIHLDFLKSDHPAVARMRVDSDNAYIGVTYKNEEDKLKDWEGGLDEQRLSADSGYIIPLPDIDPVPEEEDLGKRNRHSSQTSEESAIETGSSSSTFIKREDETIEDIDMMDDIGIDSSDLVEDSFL
T5 sequence (P15056 whole entry): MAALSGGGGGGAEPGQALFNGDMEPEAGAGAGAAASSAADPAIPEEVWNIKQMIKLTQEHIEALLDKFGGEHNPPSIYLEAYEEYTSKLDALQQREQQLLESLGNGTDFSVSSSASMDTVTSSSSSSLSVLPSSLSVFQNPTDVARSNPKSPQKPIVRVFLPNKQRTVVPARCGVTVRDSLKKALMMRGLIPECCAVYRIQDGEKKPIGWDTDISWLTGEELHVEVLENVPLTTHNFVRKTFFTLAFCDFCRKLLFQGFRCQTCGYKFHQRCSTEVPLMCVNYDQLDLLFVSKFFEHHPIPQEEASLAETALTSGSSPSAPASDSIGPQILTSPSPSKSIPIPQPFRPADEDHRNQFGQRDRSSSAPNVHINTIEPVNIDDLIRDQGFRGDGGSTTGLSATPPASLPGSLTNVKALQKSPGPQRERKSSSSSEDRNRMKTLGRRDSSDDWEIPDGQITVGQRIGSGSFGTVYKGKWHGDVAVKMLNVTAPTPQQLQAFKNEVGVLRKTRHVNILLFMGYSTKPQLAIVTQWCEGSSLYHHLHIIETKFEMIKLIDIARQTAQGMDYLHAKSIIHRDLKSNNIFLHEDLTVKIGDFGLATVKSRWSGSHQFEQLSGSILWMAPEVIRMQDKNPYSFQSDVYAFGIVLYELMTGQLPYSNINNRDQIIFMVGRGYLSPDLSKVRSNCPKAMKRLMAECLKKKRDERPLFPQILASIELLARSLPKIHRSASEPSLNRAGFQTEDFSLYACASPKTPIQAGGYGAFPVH

Compound | EC50 (HT29 cell line; EC50 ≧ 1 μM) | EC50 (A549 cell line; EC50 ≦ 100 nM) | EC50 (HuH7 cell line; 100 nM < EC50 < 1 μM) | EC50 (HepG2 cell line; 100 nM < EC50 < 1 μM) | EC50 (HUVEC cells; EC50 ≦ 100 nM) | EC50 (HeLa cell line) | inhibition at 0.1 µM (SRC) | inhibition at 0.1 µM (EGFR (ErbB1)) | inhibition at 0.1 µM (KDR (VEGFR2)) | inhibition at 0.1 µM (EGFR (ErbB1) T790M L858R) | inhibition at 0.1 µM (BRAF) | inhibition at 0.1 µM (PDGFRA (PDGFR alpha)) | inhibition at 0.1 µM (FGFR2) | EC50 (HuCCT1 cell line; EC50 ≧ 1 μM) | EC50 (HuH6 Clone 5 cell line; 100 nM < EC50 < 1 μM) | EC50 (A549 cell line; EC50 ≧ 1 μM) | EC50 (H1975 cell line; EC50 ≧ 1 μM) | EC50 (HepG2 cell line; EC50 ≧ 1 μM) | EC50 (HUVEC cells; EC50 ≧ 1 μM) | EC50 (HRMEC cells; EC50 ≧ 1 μM) | other results
COC(=O)c1cc2cc(CCc3cc(NC(=O)c4ccc(CN5CCN(C)CC5)c(C(F)(F)F)c4)ccc3C)cnc2[nH]1 [OR0748, 5-(2-{2-Methyl-5-[4-(4-methyl-piperazin-1-ylmethyl)-3-trifluoromethyl-benzoylamino]-phenyl}-ethyl)-1H-pyrrolo[2,3-b]pyridine-2-carboxylic acid methyl ester] | ≥ 1 µM | ≤ 0.1 µM | 0.1 to 1 µM | 0.1 to 1 µM | ≤ 0.1 µM | 0.1 to 1 µM | ≥ 50% | ≥ 50% | ≥ 50% | ≥ 50% | ≥ 50% | ≥ 50% | ≥ 50% |  |  |  |  |  |  |  | EC50 (A549 cell line; 100 nM < EC50 < 1 μM): 0.1 to 1 µM; EC50 (H1975 cell line; 100 nM < EC50 < 1 μM): 0.1 to 1 µM; EC50 (HuCCT1 cell line; 100 nM < EC50 < 1 μM): 0.1 to 1 µM; EC50 (MDA-MB-231 cell line; EC50 ≦ 100 nM): ≤ 0.1 µM; EC50 (HuH6 Clone 5 cell line; EC50 ≧ 1 μM): ≥ 1 µM
CC(=O)c1cc2cc(CCc3cc(NC(=O)c4ccc(CN5CCC(N(C)C)C5)c(C(F)(F)F)c4)ccc3C)cnc2[nH]1 (stereo not drawn) [OR0798, N-{3-[2-(2-Acetyl-1H-pyrrolo[2,3-b]pyridin-5-yl)-ethyl]-4-methyl-phenyl}-4-(3-dimethylamino-pyrrolidin-1-ylmethyl)-3-trifluoromethyl-benzamide] |  | ≤ 0.1 µM | 0.1 to 1 µM | 0.1 to 1 µM | ≤ 0.1 µM | 0.1 to 1 µM | ≥ 50% | ≥ 50% | ≥ 50% |  | ≥ 50% | ≥ 50% | ≥ 50% | ≥ 1 µM | 0.1 to 1 µM |  |  |  |  |  | EC50 (HRMEC cells; 100 nM < EC50 < 1 μM): 0.1 to 1 µM; EC50 (MDA-MB-231 cell line; 100 nM < EC50 < 1 μM): 0.1 to 1 µM
COC(=O)c1cc2cc(CNc3cc(NC(=O)c4ccc(C)cc4)ccc3C)cnc2[nH]1 [OR0738, 5-{[2-Methyl-5-(4-methyl-benzoylamino)-phenylamino]-methyl}-1H-pyrrolo[2,3-b]pyridine-2-carboxylic acid methyl ester] | ≥ 1 µM |  |  |  |  |  | < 50% | < 50% | < 50% | < 50% | < 50% | < 50% | < 50% | ≥ 1 µM |  | ≥ 1 µM | ≥ 1 µM | ≥ 1 µM | ≥ 1 µM |  | 
CC(=O)c1cc2cc(CCc3cc(NC(=O)c4ccc(CN5CCN(C)CC5)c(C(F)(F)F)c4)ccc3C)cnc2[nH]1 [OR0797, N-{3-[2-(2-Acetyl-1H-pyrrolo[2,3-b]pyridin-5-yl)-ethyl]-4-methyl-phenyl}-4-(4-methyl-piperazin-1-ylmethyl)-3-trifluoromethyl-benzamide] |  | ≤ 0.1 µM |  | 0.1 to 1 µM | ≤ 0.1 µM | 0.1 to 1 µM | ≥ 50% | ≥ 50% | ≥ 50% |  | ≥ 50% | ≥ 50% | ≥ 50% | ≥ 1 µM | 0.1 to 1 µM |  |  |  |  |  | EC50 (HuH7 cell line; EC50 ≦ 100 nM): ≤ 0.1 µM; EC50 (HRMEC cells; EC50 ≦ 100 nM): ≤ 0.1 µM; EC50 (MDA-MB-231 cell line; EC50 ≦ 100 nM): ≤ 0.1 µM
COC(=O)c1cc2cc(COc3cc(NC(=O)c4ccc(CN5CCN(C)CC5)c(C(F)(F)F)c4)ccc3C)cnc2[nH]1 [OR0749, 5-{2-Methyl-5-[4-(4-methyl-piperazin-1-ylmethyl)-3-trifluoromethyl-benzoylamino]-phenoxymethyl}-1H-pyrrolo[2,3-b]pyridine-2-carboxylic acid methyl ester] |  |  | 0.1 to 1 µM |  |  |  | ≥ 50% | ≥ 50% | ≥ 50% | < 50% | < 50% | ≥ 50% | ≥ 50% | ≥ 1 µM |  | ≥ 1 µM | ≥ 1 µM | ≥ 1 µM |  |  | EC50 (HT29 cell line; 100 nM < EC50 < 1 μM): 0.1 to 1 µM; EC50 (HUVEC cells; 100 nM < EC50 < 1 μM): 0.1 to 1 µM; EC50 (HuH6 Clone 5 cell line; EC50 ≧ 1 μM): ≥ 1 µM
COC(=O)c1cc2cc(CNc3cc(NC(=O)c4ccc(CN5CCN(C)CC5)cc4)ccc3C)cnc2[nH]1 [OR0746, 5-({2-Methyl-5-[4-(4-methyl-piperazin-1-ylmethyl)-benzoylamino]-phenylamino}-methyl)-1H-pyrrolo[2,3-b]pyridine-2-carboxylic acid methyl ester] | ≥ 1 µM |  |  |  |  |  | < 50% | ≥ 50% | < 50% | < 50% | < 50% | ≥ 50% | < 50% | ≥ 1 µM |  | ≥ 1 µM | ≥ 1 µM | ≥ 1 µM | ≥ 1 µM | ≥ 1 µM | 
COC(=O)c1cc2cc(COc3cc(NC(=O)c4ccc(CN5CCN(C)CC5)cc4)ccc3C)cnc2[nH]1 [OR0779, 5-{2-Methyl-5-[4-(4-methyl-piperazin-1-ylmethyl)-benzoylamino]-phenoxymethyl}-1H-pyrrolo[2,3-b]pyridine-2-carboxylic acid methyl ester] | ≥ 1 µM |  |  |  |  |  | ≥ 50% | ≥ 50% | ≥ 50% | < 50% | < 50% | ≥ 50% | < 50% | ≥ 1 µM |  | ≥ 1 µM | ≥ 1 µM | ≥ 1 µM | ≥ 1 µM | ≥ 1 µM | 
COC(=O)c1cc2cc(C=Cc3cc(NC(=O)c4ccc(CN5CCN(C)CC5)c(C(F)(F)F)c4)ccc3C)cnc2[nH]1 [OR0777, 5-(-2-{2-Methyl-5-[4-(4-methyl-piperazin-1-ylmethyl)-3-trifluoromethyl-benzoylamino]-phenyl}-vinyl)-1H-pyrrolo[2,3-b]pyridine-2-carboxylic acid methyl ester] | ≥ 1 µM |  | 0.1 to 1 µM | 0.1 to 1 µM |  |  | ≥ 50% | ≥ 50% | ≥ 50% | < 50% | < 50% | ≥ 50% | ≥ 50% |  | 0.1 to 1 µM | ≥ 1 µM | ≥ 1 µM |  |  |  | EC50 (HuCCT1 cell line; 100 nM < EC50 < 1 μM): 0.1 to 1 µM; EC50 (HUVEC cells; 100 nM < EC50 < 1 μM): 0.1 to 1 µM
COC(=O)c1cc2cc(C=Cc3cc(NC(=O)c4ccc(CN5CCN(C)CC5)cc4)ccc3C)cnc2[nH]1 [OR0776, 5-(-2-{2-Methyl-5-[4-(4-methyl-piperazin-1-ylmethyl)-benzoylamino]-phenyl}-vinyl)-1H-pyrrolo[2,3-b]pyridine-2-carboxylic acid methyl ester] |  |  |  |  |  |  | < 50% | < 50% | ≥ 50% |  | < 50% | ≥ 50% | < 50% |  |  |  |  |  |  | ≥ 1 µM | 
